# Positions of bridges follow the written chain, without caps; N, C: chain ends. Residues, ends and D or L forms follow the SMILES beside them. *: point of attachment. DOTA = O=C(O)CN1CCN(CC(=O)O)CCN(CC(=O)*)CCN(CC(=O)O)CC1; NODAGA = O=C(O)CN1CCN(CC(=O)O)CCN(C(CCC(=O)*)C(=O)O)CC1; Ahx = NCCCCCC(=O)O
# Columns and labels:
# [1] = system: human blood plasma proteins; test: Blood plasma protein binding, human plasma (ultrafiltration); assay type: in vitro ADME; conditions: 30 min, 37 °C
# Protocol: (§1) The radiopeptides (0.3 MBq; 15 pmol) were incubated in human or murine blood plasma (150 μL) for 30 min at 37 °C followed by cooling on ice, addition of ice-cold PBS (150 μL) and transfer of the samples to amicon filter devices (Amicon Ultra, 0.5 mL, Merck Millipore; cutoff 10 kDa). The filter ensured the retention of the radiopeptides bound to mouse plasma proteins or human plasma proteins during filtration (14,000 rcf, 30 min at 4 °C). Afterward, the filter inserts were inverted and centrifuged again (200 rcf, 3 min) to recover the protein-bound fraction of the radiopeptides. The activities of the free radiopeptides in the filtrate, as well as in the filter insert and the plasma protein-bound radiopeptides (Abound), were counted for activity separately in a γ-counter. The total activity (Atotal) was determined as the sum of the activities in the filtrate, filter insert, and protein-bound fractions. The percentage of radiopeptide bound to mouse serum albumin (MSA) and human serum albumin (HSA) was calculated as Abound/Atotal*100. The results were presented as average ± SD of three independent experiments (Additional file 1).
# (§2) Methods: The detailed methods are reported in the main article. Control experiments were performed by incubation of the respective radiopeptides in phosphate-buffered saline (PBS) instead of blood plasma, followed by ultracentrifugation using Amicon filters.
# [2] = as above; assay type: in vitro ADME; conditions: human, plasma, 30 min, 37 °C, read-out: Fraction bound to blood plasma proteins
# Protocol: as §1, §2
# [3] = Stability of the radiopeptide formulated in saline (HPLC); assay type: physicochemical; conditions: for Intact radiopeptide: 0.9% NaCl, room temperature, 20 MBq/nmol, 10 MBq/100 µL
# Protocol: The purified [^67Ga]GaCl3 in HCl (~ 0.1 M) was added to a sodium acetate solution (0.5 M, pH 8) to obtain a buffered system of pH ~ 4. After adding the respective peptide (DOTA-DX600, NODAGA-DX600, HBED-CC-DX600 or DOTA-BPP9a) in a quantity to obtain the desired molar activity (5–20 MBq/nmol), the reaction mixture was incubated at 95 °C for 15 min. Quality control was performed using a Merck Hitachi LaChrom HPLC system (Additional file 1). The radiopeptides were used directly for in vitro and in vivo studies without further purification steps. The stability of the radiopeptides (20 MBq/nmol) formulated in 0.9% NaCl (10 MBq/100 µL) was assessed at room temperature (Additional file 1). The highest molar activity used in these studies was 20 MBq/nmol which means that one of 73–74 molecules was labeled with gallium-67. Nevertheless, the labeling efficiency of the DX600-based peptides was assessed using the highest possible molar activity that would still allow for the preparation of the DX600-based radiopeptide at a radiochemical purity of > 95% (Additional file 1).
# Methods: The integrity of the radiopeptides (20 MBq/nmol), formulated in 0.9% NaCl (10 MBq/100 µL) and incubated at room temperature, was determined by HPLC using the system described above. The HPLC chromatograms were analyzed by determination of the peak area of the radiolabeled peptide, the released gallium-67, as well as degradation products of unknown structure. The quantity of the intact product was expressed as percentage of the sum of integrated peak areas of the entire chromatogram and set in relation to the original value determined at t = 0, which was set as 100%.
# ACE2 = molecular target: T1, ACE2 (Homo sapiens, UniProt Q9BYF1); test: ACE2-binding affinity (saturation binding on HEK-ACE2 cells); conditions: on ice, 1 h
# T1 construct: host or cells: HEK-293
# Protocol: In order to determine the KD values of the DX600-based radiopeptides and [^67Ga]Ga-DOTA-BPP9a, HEK-ACE2 and HEK-ACE cells were seeded in 48-well-plates allowing adhesion and growth overnight. The cell samples were incubated with increasing concentrations (1‒2000 nM) of the radiopeptides (5 MBq/nmol) on ice. Some of the cell samples were co-incubated with an excess of cyclo-DX600 or lisinopril (20 µM, 10 nmol) to block ACE2 or ACE, respectively, enabling the determination of non-specific binding (Additional file 1). After 1 h incubation, the cells were rinsed with PBS and lysed with NaOH (1 M, 600 µL) to count the activity in a γ-counter. The KD values were determined by plotting specific binding (total binding minus unspecific binding) against the molar concentration of the added radiopeptide. A nonlinear regression analysis was performed using GraphPad Prism software (version 8.3.1).
# [4] = In vitro stability in human blood plasma (TLC); assay type: in vitro ADME; conditions: 37 °C
# Protocol: (§3) The ^67Ga-labeled DX600-radiopeptides (20 MBq/nmol) were incubated in human and mouse plasma (10 MBq/200 µL), respectively, at 37 °C. Aliquots were taken at variable time points up to 24 h for analysis using reversed phase thin layer chromatography (TLC) with citrate buffer (0.1 M, pH 5.5) as a mobile phase. Images of the TLC plates were obtained using a storage phosphor system (Cyclone Plus, PerkinElmer) and quantified using the OptiQuant software (version 5.0, Bright Instrument Co Ltd., PerkinElmer™) (Supplementary Information).
# (§4) The radiopeptides were prepared and TLC experiments were performed immediately after radiolabeling by applying the diluted radiopeptides in saline (1 µL; ~0.05 MBq) and [^67Ga]GaCl3 solution (1 µL; ~0.05 MBq) on the TLC plates. The radiopeptides were incubated in mouse or human plasma (10 MBq/200 µL) at 37° C. TLC was performed with an aliquot of the plasma samples at the given timepoints (30 min, 1 h, 3 h and 24 h). The TLC plates were exposed to a phosphor screen followed by development using a storage phosphor system (Cyclone Plus, PerkinElmer). The quantification of the signals was carried out using the OptiQuant software (version 5.0, Bright Instrument Co Ltd., PerkinElmer^TM). The obtained chromatograms were analyzed by determination of the peak area of the radiolabeled peptide, the released gallium-67 as well as degradation products of unknown structure. The quantity of the intact product was expressed as percentage of the sum of integrated peak areas of the entire chromatogram.
# [5] = In vitro stability in mouse blood plasma (TLC); assay type: in vitro ADME; conditions: 37 °C
# Protocol: as §3, §4
# T1 sequence (Q9BYF1 18-805): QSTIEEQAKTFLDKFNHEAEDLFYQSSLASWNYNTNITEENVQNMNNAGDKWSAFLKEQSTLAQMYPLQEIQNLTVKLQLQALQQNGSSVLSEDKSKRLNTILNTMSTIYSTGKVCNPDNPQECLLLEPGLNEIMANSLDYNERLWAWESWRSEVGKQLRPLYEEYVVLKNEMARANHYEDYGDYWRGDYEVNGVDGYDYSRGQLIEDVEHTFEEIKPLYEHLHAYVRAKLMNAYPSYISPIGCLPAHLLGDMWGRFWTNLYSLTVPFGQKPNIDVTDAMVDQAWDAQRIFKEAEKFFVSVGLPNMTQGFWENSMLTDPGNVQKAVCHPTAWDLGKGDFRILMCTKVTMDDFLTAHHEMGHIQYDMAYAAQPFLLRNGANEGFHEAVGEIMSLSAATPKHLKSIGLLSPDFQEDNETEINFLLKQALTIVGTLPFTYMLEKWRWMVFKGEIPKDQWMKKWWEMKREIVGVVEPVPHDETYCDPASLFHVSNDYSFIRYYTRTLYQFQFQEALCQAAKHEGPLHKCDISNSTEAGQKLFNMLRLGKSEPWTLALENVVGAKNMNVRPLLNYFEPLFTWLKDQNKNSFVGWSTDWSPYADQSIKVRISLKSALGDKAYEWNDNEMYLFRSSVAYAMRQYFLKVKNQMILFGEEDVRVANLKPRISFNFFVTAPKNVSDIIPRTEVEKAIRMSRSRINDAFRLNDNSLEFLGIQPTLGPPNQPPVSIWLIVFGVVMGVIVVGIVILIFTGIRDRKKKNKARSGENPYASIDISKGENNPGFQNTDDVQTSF
compound,measurement,setting,value
"CC[C@H](C)[C@H](NC(=O)[C@H](CCC(N)=O)NC(=O)[C@@H]1CCCN1C(=O)[C@H](CCCNC(=N)N)NC(=O)[C@@H]1CCCN1C(=O)[C@H](Cc1c[nH]c2ccccc12)NC(=O)[C@H](CCC(=O)O)NC(=O)CCCCCNC(=O)CCCCCNC(=O)CN1CCN(CC(=O)O)CCN(CC(=O)O)CCN(CC(=O)O)CC1)C(=O)N1CCC[C@H]1C(=O)N1CCC[C@H]1C(=O)O [[^67Ga]Ga-DOTA-BPP9a, metal not drawn] ({DOTA-Ahx-Ahx}-EWPRPQIPP-OH)",Fraction bound to blood plasma proteins,[1],~ 49%
same,fraction unbound,[2],0.5
same,Degradation products (partial radiolysis),"[3]; saline, 24 h incubation",~ 11%
"CC(=O)N[C@@H](CCCCNC(=O)CN1CCN(CC(=O)O)CCN(CC(=O)O)CCN(CC(=O)O)CC1)C(=O)NCC(=O)N[C@@H](CC(=O)O)C(=O)N[C@@H](Cc1ccc(O)cc1)C(=O)N[C@@H](CO)C(=O)N[C@@H](Cc1c[nH]cn1)C(=O)N[C@H]1CSSC[C@@H](C(=O)N[C@H](C(=O)N[C@@H](Cc2ccc(O)cc2)C(=O)N2CCC[C@H]2C(=O)N[C@@H](CC(=O)O)C(=O)N2CCC[C@H]2C(=O)N[C@@H](CCC(=O)O)C(=O)NCC(=O)NCC(=O)NCC(N)=O)[C@@H](C)O)NC(=O)[C@H](CCCCN)NC(=O)[C@H](Cc2c[nH]c3ccccc23)NC(=O)[C@H](Cc2c[nH]c3ccccc23)NC(=O)[C@@H]2CCCN2C(=O)[C@H](Cc2ccc(O)cc2)NC(=O)[C@H](Cc2ccc(O)cc2)NC(=O)[C@H](CCCNC(=N)N)NC(=O)[C@H](CC(C)C)NC(=O)[C@@H]2CCCN2C(=O)[C@H](CO)NC1=O [[^67Ga]Ga-DOTA-DX600, metal not drawn] (Ac-K(DOTA)GDYSHCSPLRYYPWWKCTYPDPEGGG-NH2; disulfide 7-18)",Kd,ACE2,98 ± 10 nM
same,Released gallium-67 in human blood plasma,[4]; 24 h,> 30%
same,Intact radiopeptide in mouse blood plasma,[5]; 3 h,95 ± 3%
same,Release of gallium-67 in mouse blood plasma,[5]; 3 h,~ 4%
same,Intact radiopeptide in mouse blood plasma,[5]; 24 h,20 ± 13%
same,Release of gallium-67 in mouse blood plasma,[5]; 24 h,> 50%
same,Intact radiopeptide in mouse blood plasma,[5]; first hour,intact
"CC(=O)N[C@@H](CCCCNC(=O)CCC(C(=O)O)N1CCN(CC(=O)O)CCN(CC(=O)O)CC1)C(=O)NCC(=O)N[C@@H](CC(=O)O)C(=O)N[C@@H](Cc1ccc(O)cc1)C(=O)N[C@@H](CO)C(=O)N[C@@H](Cc1c[nH]cn1)C(=O)N[C@H]1CSSC[C@@H](C(=O)N[C@H](C(=O)N[C@@H](Cc2ccc(O)cc2)C(=O)N2CCC[C@H]2C(=O)N[C@@H](CC(=O)O)C(=O)N2CCC[C@H]2C(=O)N[C@@H](CCC(=O)O)C(=O)NCC(=O)NCC(=O)NCC(N)=O)[C@@H](C)O)NC(=O)[C@H](CCCCN)NC(=O)[C@H](Cc2c[nH]c3ccccc23)NC(=O)[C@H](Cc2c[nH]c3ccccc23)NC(=O)[C@@H]2CCCN2C(=O)[C@H](Cc2ccc(O)cc2)NC(=O)[C@H](Cc2ccc(O)cc2)NC(=O)[C@H](CCCNC(=N)N)NC(=O)[C@H](CC(C)C)NC(=O)[C@@H]2CCCN2C(=O)[C@H](CO)NC1=O (stereo partly shown) [[^67Ga]Ga-NODAGA-DX600, metal not drawn] (Ac-K(NODAGA)GDYSHCSPLRYYPWWKCTYPDPEGGG-NH2; disulfide 7-18)",Intact radiopeptide,[3]; 1 h,≥99%
same,Intact radiopeptide,[3]; 3 h,≥99%
same,Intact radiopeptide,[3]; 24 h,≥99%
same,Intact radiopeptide in human blood plasma,[4]; whole incubation period of 24 h,> 99%
same,Intact radiopeptide in mouse blood plasma,[5]; 3 h,97 ± 1%
same,Intact radiopeptide in mouse blood plasma,[5]; 24 h,36 ± 7%

# Source: article PMC10113987, “A tool for nuclear imaging of the SARS-CoV-2 entry receptor: molecular model and preclinical development of ACE2-selective radiopeptides” (EJNMMI Research, 2023)
